In patent publication US20200155575A1, “PHARMACEUTICAL COMPOSITION AND METHODS” (priority 2014, published 2020):

Experiment: Solubility in pharmaceutically acceptable carriers/excipients
Format: physicochemical
Procedure: The solubility of (8R,9S,10R,13S,14S,17S)-10,13-dimethyl-3-oxo-1,2,6,7,8,9,11,12,14,15,16,17-dodecahydrocyclopenta[a]phenanthren-17-yl tridecanoate was determined in the solvents (typical pharmaceutical carriers) listed below.

CCCCCCCCCCCCC(=O)O[C@H]1CC[C@H]2[C@@H]3CCC4=CC(=O)CC[C@]4(C)[C@H]3CC[C@]12C [testosterone tridecanoate, (8R,9S,10R,13S,14S,17S)-10,13-dimethyl-3-oxo-1,2,6,7,8,9,11,12,14,15,16,17-dodecahydrocyclopenta[a]phenanthren-17-yl tridecanoate]
Solubility mg/g at ~20-23° C. (solvent Benzyl Alcohol): 322 mg/g | Solubility mg/g at ~20-23° C. (solvent Benzyl Benzoate): 223 mg/g | Solubility mg/g at ~20-23° C. (solvent Castor Oil): 55 mg/g | Solubility mg/g at ~20-23° C. (solvent Corn glycerides -Maisine): 77 mg/g | Solubility mg/g at ~20-23° C. (solvent Corn oil): 35 mg/g | Solubility mg/g at ~20-23° C. (solvent Cremophor RH40): 10 mg/g | Solubility mg/g at ~20-23° C. (solvent Ethanol): 27 mg/g | Solubility mg/g at ~20-23° C. (solvent Fatty Acid -Oleic acid): 114 mg/g | Solubility mg/g at ~20-23° C. (solvent Medium chain glycerides-Capmul): 68 mg/g | Solubility mg/g at ~20-23° C. (solvent Olive Oil): 38 mg/g | Solubility mg/g at ~20-23° C. (solvent Peppermint Oil): ~200 mg/g
